Measurements taken from ChEMBL document CHEMBL5046266, “Synthesis and Evaluation of Structurally Diverse C-2-Substituted Thienopyrimidine-Based Inhibitors of the Human Geranylgeranyl Pyrophosphate Synthase” (J Med Chem, 2022).

Columns and labels:
in vitro = conditions: human, bone marrow mononuclear cells
[1] = MRT in CD rat plasma at 3 mg/kg/day, IV administered measured up to 24 hrs by LC-MS/MS analysis; assay type: ADME, organism-based
[2] = Hepatotoxicity in C57BL/6 mouse assessed as effect on gamma glutamyl transferase level at 10 mg/kg, iv administered measured after 7 days; assay type: toxicity, organism-based; conditions: in vivo, 168 h, time 7 day
[3] = Metabolic stability in human microsomes assessed as intrinsic clearance; assay type: ADME, Microsome; conditions: read-out: CLH
[4] = Hepatotoxicity in C57BL/6 mouse assessed as effect on amylase level at 1 mg/kg, iv administered measured after 7 days; assay type: toxicity, organism-based; conditions: in vivo, 168 h, time 7 day
[5] = Toxicity in C57BL/6 mouse assessed as effect on aspartate aminotransferase level in serum at 5 mg/kg, iv measured after 7 days; assay type: organism-based; conditions: in vivo, 168 h, time 7 day
[6] = AUC (0 to t) in CD rat plasma at 3 mg/kg/day, IV administered measured up to 24 hrs by LC-MS/MS analysis; assay type: ADME, organism-based; set-up: route intravenous, dose 3 mg/kg/day, time <=24
Mononuclear cell line [7] = assay type: toxicity, cell-based; conditions: human, 72 h, 10 µM
[8] = Hepatotoxicity in C57BL/6 mouse assessed as effect on alanine aminotransferase level at 0.5 mg/kg, iv administered measured after 7 days; assay type: toxicity, organism-based; conditions: in vivo, 168 h, time 7 day
[9] = Hepatotoxicity in C57BL/6 mouse assessed as effect on amylase level at 0.5 mg/kg, iv administered measured after 7 days; assay type: toxicity, organism-based; conditions: in vivo, 168 h, time 7 day
[10] = Hepatotoxicity in C57BL/6 mouse assessed as effect on aspartate aminotransferase level at 1 mg/kg, iv administered measured after 7 days; assay type: toxicity, organism-based; conditions: in vivo, 168 h, time 7 day
[11] = Hepatotoxicity in C57BL/6 mouse assessed as effect on aspartate aminotransferase level at 10 mg/kg, iv administered measured after 7 days; assay type: toxicity, organism-based; conditions: in vivo, 168 h, time 7 day
[12] = Hepatotoxicity in C57BL/6 mouse assessed as effect on alkaline phosphatase level at 1 mg/kg, iv administered measured after 7 days; assay type: toxicity, organism-based; conditions: in vivo, 168 h, time 7 day
Mononuclear cell line [13] = assay type: toxicity, cell-based; conditions: human, 72 h, 0.001 µM, dose 1 nM
[14] = Metabolic stability in rat microsomes assessed as intrinsic clearance; assay type: ADME, Microsome; conditions: read-out: CLH
[15] = Hepatotoxicity in C57BL/6 mouse assessed as effect on aspartate aminotransferase level at 0.5 mg/kg, iv administered measured after 7 days; assay type: toxicity, organism-based; conditions: in vivo, 168 h, time 7 day
[16] = Hepatotoxicity in C57BL/6 mouse assessed as effect on alanine aminotransferase level at 5 mg/kg, iv administered measured after 7 days; assay type: toxicity, organism-based; conditions: in vivo, 168 h, time 7 day
[17] = Hepatotoxicity in C57BL/6 mouse assessed as effect on alkaline phosphatase level at 10 mg/kg, iv administered measured after 7 days; assay type: toxicity, organism-based; conditions: in vivo, 168 h, time 7 day
[18] = Terminal half life in CD rat at 3 mg/kg/day, IV administered measured up to 24 hrs by LC-MS/MS analysis; assay type: ADME, organism-based; conditions: in vivo, read-out: beta t1/2 (converted)
[19] = Hepatotoxicity in C57BL/6 mouse assessed as effect on aspartate aminotransferase level at 5 mg/kg, iv administered measured after 7 days; assay type: toxicity, organism-based; conditions: in vivo, 168 h, time 7 day
[20] = Hepatotoxicity in C57BL/6 mouse assessed as effect on alkaline phosphatase level at 5 mg/kg, iv administered measured after 7 days; assay type: toxicity, organism-based; conditions: in vivo, 168 h, time 7 day
[21] = Hepatotoxicity in C57BL/6 mouse assessed as effect on gamma glutamyl transferase level at 5 mg/kg, iv administered measured after 7 days; assay type: toxicity, organism-based; conditions: in vivo, 168 h, time 7 day
Mononuclear cell line [22] = assay type: toxicity, cell-based; conditions: human, 72 h, 1 µM
Mononuclear cell line [23] = assay type: toxicity, cell-based; conditions: human, 72 h, 0.01 µM, dose 10 nM
[24] = Hepatotoxicity in C57BL/6 mouse assessed as effect on bilirubin level at 10 mg/kg, iv administered measured after 7 days; assay type: toxicity, organism-based; conditions: in vivo, 168 h, time 7 day
[25] = Hepatotoxicity in C57BL/6 mouse assessed as effect on gamma glutamyl transferase level at 0.5 mg/kg, iv administered measured after 7 days; assay type: toxicity, organism-based; conditions: in vivo, 168 h, time 7 day
[26] = Hepatotoxicity in C57BL/6 mouse assessed as effect on bilirubin level at 5 mg/kg, iv administered measured after 7 days; assay type: toxicity, organism-based; conditions: in vivo, 168 h, time 7 day
[27] = Intrinsic clearance in CD rat plasma at 3 mg/kg/day, IV administered measured up to 24 hrs by LC-MS/MS analysis; assay type: ADME, organism-based; conditions: in vivo
[28] = Hepatotoxicity in C57BL/6 mouse assessed as effect on gamma glutamyl transferase level at 1 mg/kg, iv administered measured after 7 days; assay type: toxicity, organism-based; conditions: in vivo, 168 h, time 7 day
[29] = Hepatotoxicity in C57BL/6 mouse assessed as effect on bilirubin level at 1 mg/kg, iv administered measured after 7 days; assay type: toxicity, organism-based; conditions: in vivo, 168 h, time 7 day
[30] = Metabolic stability in mouse microsomes assessed as intrinsic clearance; assay type: ADME, Microsome
[31] = Hepatotoxicity in C57BL/6 mouse assessed as effect on alanine aminotransferase level at 10 mg/kg, iv administered measured after 7 days; assay type: toxicity, organism-based; conditions: in vivo, 168 h, time 7 day
[32] = AUC (0 to infinity) in CD rat plasma at 3 mg/kg/day, IV administered measured up to 24 hrs by LC-MS/MS analysis; assay type: ADME, organism-based; set-up: route intravenous, dose 3 mg/kg/day, time <=24
[33] = Volume of distribution at steady state in CD rat at 3 mg/kg/day, IV administered measured up to 24 hrs by LC-MS/MS analysis; assay type: ADME, organism-based; conditions: in vivo, read-out: Vdss
[34] = Hepatotoxicity in C57BL/6 mouse assessed as effect on bilirubin level at 0.5 mg/kg, iv administered measured after 7 days; assay type: toxicity, organism-based; conditions: in vivo, 168 h, time 7 day
[35] = Toxicity in C57BL/6 mouse assessed as effect on aspartate aminotransferase level in serum at 0.5 mg/kg, iv measured after 7 days; assay type: organism-based; conditions: in vivo, 168 h, time 7 day
[36] = Hepatotoxicity in C57BL/6 mouse assessed as effect on amylase level at 5 mg/kg, iv administered measured after 7 days; assay type: toxicity, organism-based; conditions: in vivo, 168 h, time 7 day
[37] = Hepatotoxicity in C57BL/6 mouse assessed as effect on amylase level at 10 mg/kg, iv administered measured after 7 days; assay type: toxicity, organism-based; conditions: in vivo, 168 h, time 7 day
[38] = Hepatotoxicity in C57BL/6 mouse assessed as effect on alanine aminotransferase level at 1 mg/kg, iv administered measured after 7 days; assay type: toxicity, organism-based; conditions: in vivo, 168 h, time 7 day
[39] = Hepatotoxicity in C57BL/6 mouse assessed as effect on alkaline phosphatase level at 0.5 mg/kg, iv administered measured after 7 days; assay type: toxicity, organism-based; conditions: in vivo, 168 h, time 7 day
RPMI-8226 = assay: cells; conditions: Homo sapiens, RPMI-8226, 72 h
[40] = target: T1, Farnesyl pyrophosphate synthase (Homo sapiens, UniProt P14324)
T1 sequence (P14324 whole entry): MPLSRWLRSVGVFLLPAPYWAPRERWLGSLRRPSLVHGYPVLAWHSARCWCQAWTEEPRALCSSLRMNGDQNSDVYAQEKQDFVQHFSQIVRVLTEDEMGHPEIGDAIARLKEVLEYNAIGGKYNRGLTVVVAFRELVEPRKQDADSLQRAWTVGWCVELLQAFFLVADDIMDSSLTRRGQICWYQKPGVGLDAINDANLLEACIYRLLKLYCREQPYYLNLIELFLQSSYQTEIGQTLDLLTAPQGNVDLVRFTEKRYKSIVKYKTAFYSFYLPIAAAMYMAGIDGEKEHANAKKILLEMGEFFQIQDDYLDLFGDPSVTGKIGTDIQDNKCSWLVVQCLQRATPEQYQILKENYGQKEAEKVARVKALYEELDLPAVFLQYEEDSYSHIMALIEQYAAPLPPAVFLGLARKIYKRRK

[41] = target: T2, Geranylgeranyl pyrophosphate synthase (Homo sapiens, UniProt O95749)
T2 sequence (O95749 whole entry): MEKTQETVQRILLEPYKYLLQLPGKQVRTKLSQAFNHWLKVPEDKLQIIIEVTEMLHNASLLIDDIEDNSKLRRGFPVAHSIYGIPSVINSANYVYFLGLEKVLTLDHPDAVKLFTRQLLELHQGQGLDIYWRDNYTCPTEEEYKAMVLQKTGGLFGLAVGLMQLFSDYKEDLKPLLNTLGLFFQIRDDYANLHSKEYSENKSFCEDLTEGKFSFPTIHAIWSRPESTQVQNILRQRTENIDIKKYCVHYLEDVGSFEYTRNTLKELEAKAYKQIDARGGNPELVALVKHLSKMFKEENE

[42] = target: T3, Farnesyl pyrophosphate synthase (Homo sapiens) (UniProt P14324); assay: Inhibition of human FPPS expressed in Escherichia coli BL21 (DE3) at 1 uM preincubated for 10 mins in presence compound relative to control
T3 sequence (whole entry): T1 sequence (P14324 whole entry)

CC(C)C[C@H](NC(=O)[C@H](Cc1ccccc1)NC(=O)c1cnccn1)B(O)O [BORTEZOMIB]
viability at 72 h, 0.05 µM (in vitro): 40.1%

COc1ccc(NC(=O)c2cccc(-c3nc(NC(P(=O)(O)O)P(=O)(O)O)c4ccsc4n3)c2)cc1F
MRT [1]: 6.21 h
Activity [2]: Non-Toxic
microsomal CLint [3]: 7 µL/min/mg
Activity [4]: Non-Toxic
Activity [5]: Non-Toxic
AUC(0-t) at 24 h [6]: 149 µM·h
Activity (Mononuclear cell line [7]): 21.3%
Activity [8]: Non-Toxic
Activity [9]: Non-Toxic
Activity [10]: Non-Toxic
Activity [11]: Non-Toxic
Activity [12]: Non-Toxic
Activity (Mononuclear cell line [13]): 79.7%
microsomal CLint [14]: 13 µL/min/mg
Activity [15]: Non-Toxic
Activity [16]: Non-Toxic
Activity [17]: Non-Toxic
half-life [18]: 5.34 h
Activity [19]: Non-Toxic
Activity [20]: Non-Toxic
Activity [21]: Non-Toxic
Activity (Mononuclear cell line [22]): 17.8%
Activity (Mononuclear cell line [23]): 77.2%
Activity [24]: Non-Toxic
Activity [25]: Non-Toxic
Activity [26]: Non-Toxic
CL [27]: 0.567 mL/min/kg
Activity [28]: Non-Toxic
Activity [29]: Non-Toxic
CLH [30]: 27 µL/min/mg
Activity [31]: Non-Toxic
AUC(0-inf) [32]: 155 µM·h
Vd [33]: 0.211 L/kg
Activity [34]: Non-Toxic
Activity [35]: Non-Toxic
Activity [36]: Non-Toxic
Activity [37]: Non-Toxic
Activity [38]: Non-Toxic
Activity [39]: Non-Toxic

COc1ccc([C@@H](OC(C)C)C(=O)Nc2cccc(-c3nc(NC(P(=O)(O)O)P(=O)(O)O)c4ccsc4n3)c2)cc1F
EC50 (RPMI-8226): > 5000 nM
IC50 [40]: 730 nM
IC50 [41]: 20 nM

CC(C)C[C@H](NC(=O)[C@H](CCc1ccccc1)NC(=O)CN1CCOCC1)C(=O)N[C@@H](Cc1ccccc1)C(=O)N[C@@H](CC(C)C)C(=O)[C@@]1(C)CO1 [CARFILZOMIB]
viability at 72 h, 0.05 µM (in vitro): 43.6%

COc1ccc([C@H](OC(C)C)C(=O)Nc2cccc(-c3nc(NC(P(=O)(O)O)P(=O)(O)O)c4ccsc4n3)c2)cc1F
EC50 (RPMI-8226): 880 nM
IC50 [40]: 460 nM
IC50 [41]: 17 nM

COc1ccc(C(=O)Nc2cccc(-c3nc(NC(P(=O)(O)O)P(=O)(O)O)c4ccsc4n3)c2)cc1Br
EC50 (RPMI-8226): > 500 nM
inhibition [42]: 40%
IC50 [41]: 36 nM

CO[C@@H](C(=O)Nc1cccc(-c2nc(NC(P(=O)(O)O)P(=O)(O)O)c3ccsc3n2)c1)c1ccccc1
EC50 (RPMI-8226): 920 nM
inhibition [42]: 48%
IC50 [41]: 39 nM
